One test has as its target CDK2/Cyclin E1 (Homo sapiens (Human), UniProt P24941). Put plainly: biochemical. The following applies: CDK2_Ki (nM), phosphorylated CDK2/Cyclin E1, 150 μM ATP, Morrison tight-binding fit.
The target of the next test is CDK6/Cyclin D1 (Homo sapiens (Human), UniProt Q00534). Briefly: biochemical. As to conditions: CDK6_Ki (nM), non-phosphorylated CDK6/Cyclin D1, 2 mM ATP, Morrison fit.
A further test has as its target CDK4/Cyclin D3 (Homo sapiens (Human), UniProt P11802). Briefly: biochemical.
Another test relates to HCC1806 tumor xenograft. Put plainly: HCC1806 mouse tumor xenograft model. Format: in vivo, NU/NU female mice. The following applies: 30 mpk PO BID, 50 mpk PO BID and 75 mpk PO BID, 14 days.

Structures are written as SMILES. pKi: −log10 of the molar value.

Sequence of CDK4/Cyclin D3 (P11802 whole entry): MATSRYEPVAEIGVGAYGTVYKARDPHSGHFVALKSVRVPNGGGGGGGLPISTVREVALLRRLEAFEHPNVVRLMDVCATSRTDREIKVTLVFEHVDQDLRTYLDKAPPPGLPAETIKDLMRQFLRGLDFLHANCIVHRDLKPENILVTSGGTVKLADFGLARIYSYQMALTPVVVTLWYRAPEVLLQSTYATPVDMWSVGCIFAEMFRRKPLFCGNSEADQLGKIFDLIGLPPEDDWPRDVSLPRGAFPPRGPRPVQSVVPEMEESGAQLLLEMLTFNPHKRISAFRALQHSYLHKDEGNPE
Sequence of CDK4/Cyclin D3 (P30281 whole entry partner): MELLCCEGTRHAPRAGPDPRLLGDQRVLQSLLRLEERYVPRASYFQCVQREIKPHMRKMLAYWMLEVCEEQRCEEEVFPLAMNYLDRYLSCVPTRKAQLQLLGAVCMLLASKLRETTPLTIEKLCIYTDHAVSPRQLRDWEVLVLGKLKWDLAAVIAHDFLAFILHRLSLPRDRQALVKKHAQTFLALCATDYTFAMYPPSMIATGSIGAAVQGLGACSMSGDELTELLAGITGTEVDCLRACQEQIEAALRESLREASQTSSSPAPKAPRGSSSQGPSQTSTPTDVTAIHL
Sequence of CDK6/Cyclin D1 (Q00534 whole entry): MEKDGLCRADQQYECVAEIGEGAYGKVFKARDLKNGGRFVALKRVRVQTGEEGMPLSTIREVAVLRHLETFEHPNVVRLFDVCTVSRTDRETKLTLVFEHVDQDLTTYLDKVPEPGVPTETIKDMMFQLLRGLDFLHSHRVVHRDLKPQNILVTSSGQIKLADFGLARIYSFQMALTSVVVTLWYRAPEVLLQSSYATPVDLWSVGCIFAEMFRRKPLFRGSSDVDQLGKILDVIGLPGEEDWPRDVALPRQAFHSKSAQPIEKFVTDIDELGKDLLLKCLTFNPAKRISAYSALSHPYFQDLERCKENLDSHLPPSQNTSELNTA
Sequence of CDK6/Cyclin D1 (P24385 whole entry partner): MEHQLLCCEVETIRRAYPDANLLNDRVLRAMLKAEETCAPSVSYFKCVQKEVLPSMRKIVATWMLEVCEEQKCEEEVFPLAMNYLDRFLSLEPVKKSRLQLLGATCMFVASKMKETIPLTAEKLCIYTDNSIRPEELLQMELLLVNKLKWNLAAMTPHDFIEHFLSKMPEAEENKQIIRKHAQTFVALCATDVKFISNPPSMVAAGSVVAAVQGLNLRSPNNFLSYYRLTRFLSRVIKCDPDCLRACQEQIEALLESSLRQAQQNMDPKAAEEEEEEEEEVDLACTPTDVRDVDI
Protocol for CDK2/Cyclin E1: The assay was initiated with the addition of ATP, following a fifteen minutes pre-incubation of enzyme and inhibitor at room temperature in the reaction mixture. The reaction was stopped after 45 minutes at room temperature by the addition of 50 μL of 80 mM EDTA, pH 7.5.
Protocol for HCC1806 tumor xenograft: Source: HCC1806 (# CRL 2335, ATCC, Manassas, Va.)
The HCC1806 tumor cell line was cultured in RPMI1640 media supplemented with 10% Fetal Bovine Serum (FBS). To establish a HCC1806 xenograft model, 5×10^6 cells per mouse were implanted subcutaneously into right hind flank NU/NU female mice. Cells were suspended in 50% Cultrex Basement Membrane Extract and 50% RPMI 1640 media serum free media prior to implantation.
Animals were randomized 7 days after cells implantation with each group consisting of 13 mice. Treatment began when tumors reached 100 mm^3 to 170 mm^3 in size on Day 7. Test compounds were prepared in 0.1% Tween, 0.5% Methyl cellulose in water and dosed PO at 30, 50, and 75 mg/kg as a suspension BID for 14 days. Mice receiving no drugs were given vehicle BID for 14 days. Tumor volumes were measured twice a week with an electric caliper, with tumor volumes calculated using Length×Width×Width/2 formula. Animal weights were recorded twice weekly.

Regarding `C[C@@]1(O)CCC[C@H]1n1c(=O)c(F)cc2cnc(NC3CCN(S(C)(=O)=O)CC3)nc21` (single isomer, unassigned) [Example 6, (−)-6-fluoro-8-[(1R*,2R*)-2-hydroxy-2-methylcyclopentyl]-2-{[1-(methylsulfonyl)piperidin-4-yl]amino}pyrido[2,3-d]pyrimidin-7(8H)-one], the Ki (in general, a dissociation constant, usually derived from enzyme kinetics or from competition with a known ligand) at CDK2/Cyclin E1 is 0.48 nM; on CDK6/Cyclin D1, 2.38 nM. Moreover, the pKi (commonly the negative decadic logarithm of the Ki, by convention in mol/L) at CDK4/Cyclin D3 was 8.40.
As for `C[C@@]1(O)CCC[C@H]1n1c(=O)c(CC#N)cc2cnc(NC3CCN(S(C)(=O)=O)CC3)nc21` (single isomer, unassigned) [Example 120, (−)-(8-[(1R*,2R*)-2-hydroxy-2-methylcyclopentyl]-2-{[1-(methylsulfonyl)piperidin-4-yl]amino}-7-oxo-7,8-dihydropyrido[2,3-d]pyrimidin-6-yl)acetonitrile], the Ki at CDK2/Cyclin E1 was determined as 0.16 nM; at CDK6/Cyclin D1 it was 0.18 nM. At CDK4/Cyclin D3, this compound gave a pKi of 9.47.
Regarding `C[C@@]1(O)CCC[C@H]1n1c(=O)c(CCO)cc2cnc(NC3CCN(S(C)(=O)=O)CC3)nc21` (single isomer, unassigned) [Example 122, (−)-6-(2-hydroxyethyl)-8-[(1R*,2R*)-2-hydroxy-2-methylcyclopentyl]-2-{[1-(methylsulfonyl)piperidin-4-yl]amino}pyrido[2,3-d]pyrimidin-7(8H)-one], the Ki on CDK2/Cyclin E1 amounted to 0.11 nM; at CDK6/Cyclin D1 it was 0.23 nM. Also, at CDK4/Cyclin D3, the pKi was 9.04.
Taken in the same sequence, the figures for `CS(=O)(=O)N1CCC(Nc2ncc3ccc(=O)n([C@@H]4CCC[C@@H](O)C4)c3n2)CC1` [Example 3, 8-[(1R,3R)-3-hydroxycyclohexyl]-2-{[1-(methylsulfonyl)piperidin-4-yl]amino}pyrido[2,3-d]pyrimidin-7(8H)-one] were 0.26 nM, 1.17 nM and 8.46.
As to `C[C@@]1(O)CCC[C@H]1n1c(=O)c(C(F)F)cc2cnc(NC3CCN(S(C)(=O)=O)CC3)nc21` [Example 10, 6-(difluoromethyl)-8-[(1R,2R)-2-hydroxy-2-methylcyclopentyl]-2-{[1-(methylsulfonyl)piperidin-4-yl]amino}pyrido[2,3-d]pyrimidin-7(8H)-one], in the test with HCC1806 tumor xenograft, the “inhibition of tumor growth (mm^3)” value is reported as “tumor growth inhibition”.
As to `C[C@H]1CCC[C@H]1n1c(=O)c(CO)cc2cnc(NC3CCN(S(C)(=O)=O)CC3)nc21` [Example 50, 6-(hydroxymethyl)-8-[(1R,2S)-2-methylcyclopentyl]-2-{[1-(methylsulfonyl)piperidin-4-yl]amino}pyrido[2,3-d]pyrimidin-7(8H)-one], the Ki at CDK2/Cyclin E1 is 0.27 nM; at CDK6/Cyclin D1 it was 0.08 nM.
For `C[C@@H]1CCC[C@@H]1n1c(=O)c(CO)cc2cnc(NC3CCN(S(C)(=O)=O)CC3)nc21` [Example 51, 6-(hydroxymethyl)-8-[(1S,2R)-2-methylcyclopentyl]-2-{[1-(methylsulfonyl)piperidin-4-yl]amino}pyrido[2,3-d]pyrimidin-7(8H)-one], in that order: 1.74 nM and 0.13 nM.
Taken in the same sequence, the figures for `COCCS(=O)(=O)N1CCC(Nc2ncc3ccc(=O)n([C@@H]4CCC[C@@H]4C)c3n2)CC1` [Example 52, 2-({1-[(2-methoxyethyl)sulfonyl]piperidin-4-yl}amino)-8-[(1R,2S)-2-methylcyclopentyl]pyrido[2,3-d]pyrimidin-7(8H)-one] were 0.12 nM and 0.24 nM.
Taken in the same sequence, the figures for `C[C@@]1(O)CCC[C@H]1n1c(=O)c(C(F)(F)F)cc2cnc(NC3CCN(S(C)(=O)=O)CC3)nc21` [Example 132, 8-[(1R,2R)-2-hydroxy-2-methylcyclopentyl]-2-{[1-(methylsulfonyl)piperidin-4-yl]amino}-6-(trifluoromethyl)pyrido[2,3-d]pyrimidin-7(8H)-one] were 0.57 nM and 0.37 nM.
On to `CC(C)S(=O)(=O)N1CCC(Nc2ncc3cc(CCO)c(=O)n(C4CCCC4)c3n2)CC1` [Example 136, 8-cyclopentyl-6-(2-hydroxyethyl)-2-{[1-(propan-2-ylsulfonyl)piperidin-4-yl]amino}pyrido[2,3-d]pyrimidin-7(8H)-one], for which the results for the Ki on CDK2/Cyclin E1 and at CDK6/Cyclin D1 were 3.14 nM and 1.35 nM, respectively.
Taken in the same sequence, the figures for `C#CCCS(=O)(=O)N1CCC(Nc2ncc3cc(N)c(=O)n(C4CCCC4)c3n2)CC1` [Example 137, 6-amino-2-{[1-(but-3-yn-1-ylsulfonyl)piperidin-4-yl]amino}-8-cyclopentylpyrido[2,3-d]pyrimidin-7(8H)-one] were 4.08 nM and 6.3 nM.
Taken in the same sequence, the figures for `CS(=O)(=O)N1CCC(Nc2ncc3cc(CC(F)F)c(=O)n([C@@H]4CCC[C@@H](O)C4)c3n2)CC1` [Example 140, 6-(2,2-difluoroethyl)-8-[(1R,3R)-3-hydroxycyclohexyl]-2-{[1-(methylsulfonyl)piperidin-4-yl]amino}pyrido[2,3-d]pyrimidin-7(8H)-one] were 1.97 nM and 0.63 nM.
Taken in the same sequence, the figures for `CCc1cc2cnc(NC3CCN(S(C)(=O)=O)CC3)nc2n(C2CCCC2)c1=O` [Example 141, 8-cyclopentyl-6-ethyl-2-{[1-(methylsulfonyl)piperidin-4-yl]amino}pyrido[2,3-d]pyrimidin-7(8H)-one] were 1.25 nM and 0.37 nM.
Take `COCc1cc2cnc(NC3CCN(S(C)(=O)=O)CC3)nc2n(C2CCCC2)c1=O` [Example 142, 8-cyclopentyl-6-(methoxymethyl)-2-{[1-(methylsulfonyl)piperidin-4-yl]amino}pyrido[2,3-d]pyrimidin-7(8H)-one]: the Ki at CDK2/Cyclin E1 was found to be 1.88 nM; at CDK6/Cyclin D1 it was 0.55 nM.
For `CNS(=O)(=O)N1CCC(Nc2ncc3cc(CCO)c(=O)n(C4CCCC4)c3n2)CC1` [Example 146, 4-{[8-cyclopentyl-6-(2-hydroxyethyl)-7-oxo-7,8-dihydropyrido[2,3-d]pyrimidin-2-yl]amino}-N-methylpiperidine-1-sulfonamide], in that order: 1.51 nM and 1.1 nM.
Taken in the same sequence, the figures for `CS(=O)(=O)N1CCC(Nc2ncc3cc(CC(=O)O)c(=O)n(C4CCCC4)c3n2)CC1` [Example 147, (8-cyclopentyl-2-{[1-(methylsulfonyl)piperidin-4-yl]amino}-7-oxo-7,8-dihydropyrido[2,3-d]pyrimidin-6-yl)acetic acid] were 1.57 nM and 0.45 nM.
For `CS(=O)(=O)N1CCC(Nc2ncc3cc(C(F)(F)F)c(=O)n(C4CCCC4)c3n2)CC1` [Example 148, 8-cyclopentyl-2-{[1-(methylsulfonyl)piperidin-4-yl]amino}-6-(trifluoromethyl)pyrido[2,3-d]pyrimidin-7(8H)-one], in that order: 4.18 nM and 0.26 nM.
On to `CS(=O)(=O)N1CCC(Nc2ncc3cc(CCO)c(=O)n(C4CCCCCC4)c3n2)CC1` [Example 165, 8-cycloheptyl-6-(2-hydroxyethyl)-2-{[1-(methylsulfonyl)piperidin-4-yl]amino}-pyrido[2,3-d]pyrimidin-7(8H)-one], for which the Ki was 1.51 nM on CDK2/Cyclin E1 and 2.65 nM at CDK6/Cyclin D1.
For `Cc1cc2cnc(NC3CCN(S(C)(=O)=O)CC3)nc2n([C@@H]2CCC[C@H]2O)c1=O` [Example 173, 8-[(1R,2R)-2-hydroxycyclopentyl]-6-methyl-2-{[1-(methylsulfonyl)piperidin-4-yl]amino}pyrido[2,3-d]pyrimidin-7(8H)-one], in that order: 2.95 nM and 3.52 nM.
For `CC(C)(O)CS(=O)(=O)N1CCC(Nc2ncc3ccc(=O)n([C@@H]4CCC[C@@]4(C)O)c3n2)CC1` [Example 189, 8-[(1R,2R)-2-hydroxy-2-methylcyclopentyl]-2-({1-[(2-hydroxy-2-methylpropyl)sulfonyl]piperidin-4-yl}amino)pyrido[2,3-d]pyrimidin-7(8H)-one], in that order: 1.2 nM and 1.98 nM.
Take `C[C@@]1(O)CCC[C@H]1n1c(=O)ccc2cnc(NC3CCN(S(=O)(=O)CS(C)(=O)=O)CC3)nc21` [Example 190, 8-[(1R,2R)-2-hydroxy-2-methylcyclopentyl]-2-[(1-{[(methylsulfonyl)methyl]sulfonyl}piperidin-4-yl)amino]pyrido[2,3-d] pyrimidin-7(8H)-one]: the inhibitory constant (Ki) at CDK2/Cyclin E1 came out at 0.51 nM; at CDK6/Cyclin D1, 184 nM.
Taken in the same sequence, the figures for `CS(=O)(=O)N1CCC(Nc2ncc3ccc(=O)n([C@H]4CCC[C@H](O)C4)c3n2)CC1` [Example 211, 8-[(1S,3S)-3-hydroxycyclohexyl]-2-{[1-(methylsulfonyl)piperidin-4-yl]amino}pyrido[2,3-d]pyrimidin-7(8H)-one] were 2.19 nM and 2.22 nM.
`CS(=O)(=O)N1CCC(Nc2ncc3cc(C(F)F)c(=O)n([C@@H]4CCC[C@@H](O)C4)c3n2)CC1` [Example 212, 6-(difluoromethyl)-8-[(1R,3R)-3-hydroxycyclohexyl]-2-{[1-(methylsulfonyl)piperidin-4-yl]amino}pyrido[2,3-d]pyrimidin-7(8H)-one]: the Ki on CDK2/Cyclin E1 came out at 1.2 nM; at CDK6/Cyclin D1 it was 0.17 nM.
Taken in the same sequence, the figures for `CS(=O)(=O)N1CCC(Nc2ncc3ccc(=O)n([C@H]4CC[C@@H](O)CC4)c3n2)CC1` [Example 215, 8-(cis-4-hydroxycyclohexyl)-2-{[1-(methylsulfonyl)piperidin-4-yl]amino}pyrido[2,3-d]pyrimidin-7(8H)-one] were 1.57 nM and 2.84 nM.

Values taken from patent US10233188B2, “CDK2/4/6 inhibitors” (priority 2016, dated 2019).
